# In patent US20170240522A1, “BENZOTHIOPHENE, BENZYLOXYBENZYLIDENE AND INDOLINE DERIVATIVES USEFUL FOR THE TREATMENT OF TUBERCULOSIS” (priority 2014, published 2017):
# Like-named read-outs stand apart in the source and are kept apart here.
# Tests used:
# MprB = target: T1, MprB (Mycobacterium tuberculosis, UniProt P9WGL1); test: MprB autophosphorylation assay; format: biochemical
# T1 construct: MprB lacking its N-terminal transmembrane domain was incubated with [γ-32P]ATP; His6; made in house; host or cells: E. coli BL21 (DE3), vector pQE80L
# T1 sequence (P9WGL1 185-504 limits assumed): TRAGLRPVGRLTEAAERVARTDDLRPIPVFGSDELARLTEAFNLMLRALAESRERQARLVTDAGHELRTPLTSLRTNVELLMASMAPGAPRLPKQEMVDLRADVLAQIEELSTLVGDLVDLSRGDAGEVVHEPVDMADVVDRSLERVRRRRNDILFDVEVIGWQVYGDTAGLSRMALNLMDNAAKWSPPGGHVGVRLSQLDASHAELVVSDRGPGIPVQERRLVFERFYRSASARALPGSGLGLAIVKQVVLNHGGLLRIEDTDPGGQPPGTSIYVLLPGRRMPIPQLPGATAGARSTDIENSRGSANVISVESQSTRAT
# ESX-1 = ESX-1 inhibitory activity of inhibitors of mycobacterium virulence (Table VII); format: cell-based, Mycobacterium tuberculosis
# EsxA = format: cell-based, Mycobacterium tuberculosis
# Ag85 complex proteins = format: cell-based, Mycobacterium tuberculosis
# [1] = tested on: several other mycobacteria and non-mycobacterial pathogens; test: REMA assay of non-Mtb strains; format: cell-based
# [2] = tested on: Mtb expressing GFP in infected fibroblasts; format: cell-based, Mycobacterium tuberculosis; conditions: compound concentration 5 μM (FIG. 2D)
# Mtb transcriptome = test: RNA-seq and qRT-PCR of compound-treated Mtb; format: cell-based, Mycobacterium tuberculosis
# Description: For the transcriptomic studies, bacteria were grown under the same conditions as for protein secretion assays. Drug exposure time was 8 hours with 5 μM of compound for RNA-seq experiments and confirmatory qRT-PCR. RNA was extracted with Trizol (Invitrogen) and treated with DNase I (Roche) prior to library preparation or generation of the cDNA template. cDNA was synthesized using the RevertAid First Strand cDNA Synthesis Kit (Fermentas) using random hexamer primer. cDNA corresponding to 10 ng of input RNA was used in each RT-PCR reaction supplemented with specific primer pairs (200 nM each) listed in Table S4 and SYBR-Green master mix (Applied Biosystems). Quantitative RT-PCR reactions were performed with the 7900HT Fast Real-Time PCR System (Applied Biosystems) with the following parameters: 50° C. for 2 min, 95° C. for 10 min, followed by 40 cycles of 95° C. for 15 s and 60° C. for 60 s. Melt curve analysis was used to confirm specific amplification for each primer pair. Unpaired Student's T-tests were used for statistical analyses.
# For the RNA-seq library preparation 100 ng of total RNA were used in the TruSeq Stranded mRNA LT kit, according to the instructions provided by the manufacturer (Illumina). A small aliquot was analyzed on Qubit and Fragment Analyzer prior to sequencing on Illumina HiSeq using the TruSeq SR Cluster Generation Kit v3 and TruSeq SBS Kit v3. Data were processed with the Illumina Pipeline Software v1.82. RNA-seq data were deposited in the Gene Expression Omnibus (GEO) server at the National Center for Biotechnology Information (NCBI).
# • All analyses in this study were carried out using the M. tuberculosis H37Rv annotation from the TubercuList database (http://tuberculist.epfl.ch/) (Lew et al., 2011). There are 4019 protein coding sequences (CDS) currently annotated in the genome, 73 genes encoding for stable RNAs, small RNAs and tRNAs. In order to quantify protein occupancy and transcription across the entire genome, 3080 intergenic regions (regions flanked by two non-overlapping CDS) were included, resulting in a total of 7172 features. • The single-ended sequence reads generated from RNA-seq experiments were aligned to the M. tuberculosis H37Rv genome (NCBI accession NC_000962.2) using Bowtie2 with default parameters (Langmead and Salzberg, 2012). Read counts for all annotated features were obtained with the htseq-count program (http://www.huber.embl.de/users/anders/HTSeq/doc/count.html). Regions where genes overlapped were excluded from counting. Reads spanning more than one feature were counted for each feature. Since the RNA library was strand-specific, the orientation of sequence reads had to correspond to the orientation of annotated features to be counted. Analysis of differential gene expression was carried out using the DESeq package (Anders and Huber, 2010).
# MRC-5 lung fibroblasts = test: Fibroblast survival assay (FSA); format: cell-based; conditions: Homo sapiens, MRC5; read-out: IC50 of protection of fibroblasts
# Mtb-Erdman = test: Growth of Mtb in 7H9 broth; format: cell-based, Mycobacterium tuberculosis; conditions: 25 μM
# ATP-levels of Mtb = test: Quantification of intracellular ATP levels; format: cell-based, Mycobacterium tuberculosis; conditions: 10 μM, 24 hours
# Description: (§1) Bacteria were grown for 24 hours in the presence of test compounds. The BacTiter-Glo microbial cell viability reagent (Promega) was used for the quantification of ATP according to the recommendations of the manufacturer. For EtBr uptake assays, bacteria were washed with PBS containing 0.05% Tween 80, OD600 was adjusted to 0.4 and 100 μl were pipetted into black 96 well plates. EtBr was added (4 μM final concentration) and fluorescence was read every 2 min. at 545/600 nm. Unpaired Student's T-tests were used for statistical analyses.
# [3] = tested on: Mtb-infected THP-1 macrophages; format: cell-based, human
# [4] = tested on: Mtb-GFP inside activated THP-1 cells; format: cell-based, Mycobacterium tuberculosis; conditions: activated THP-1, 10 μM
# THP-1 macrophages = test: Survival of Mtb-infected activated THP-1 macrophages; format: cell-based, human; conditions: activated THP-1, higher MOI, 10 μM
# [5] = tested on: mycobacterial outer membrane permeability; test: Ethidium bromide (EtBr) uptake assay; format: cell-based, Mycobacterium tuberculosis; conditions: 10 μM
# Description: as §1
# To investigate whether BBH7 alters mycobacterial outer membrane permeability, which might explain the transcriptomic pattern associated with metal-ion toxicity, the Applicant performed ethidium bromide (EtBr) uptake assays after treatment with the compounds of interest. These assays identify altered outer membrane permeability by an increase of fluorescence after binding of EtBr to bacterial nucleic acids. […] This was not observed with BTP15.
# Description for GroEL: In brief, 30 ml of bacteria grown to mid-logarithmic phase (OD600 of 0.6 to 0.7) in Sauton's medium supplemented with 0.05% Tween 80 were centrifuged and resuspended in Sauton's medium without Tween. Compounds were added at concentrations as indicated and cells were grown further at 37° C. with shaking for 4 days. Cultures were harvested by centrifugation to obtain culture filtrates and cell pellets. Culture filtrates were concentrated 100-fold in 5-kDa cutoff Vivaspin columns (Sartorius). Cell lysates were prepared by bead beating bacterial pellets in lysis buffer with 100-μm glass beads.
# For immunoblot analysis, 5 μg of protein were resolved by SDS-gel electrophoresis and transferred to nitrocellulose membranes. Membranes were blocked with TBS-buffer (3% milk powder) and incubated overnight with the desired primary antibody diluted in TNT-buffer supplemented with 1% BSA fraction V. Membranes were washed with TNT, incubated with the appropriate secondary antibody in TNT-BSA, washed again with TNT, and developed. GroEL2 was used as a lysis control for culture filtrates and as a loading control for cell lysates.
compound,measurement,setting,value
Nc1ncnc2c1ncn2[C@@H]1O[C@H](COP(=O)(O)OP(=O)(O)NP(=O)(O)O)[C@@H](O)[C@H]1O [AMP-PNP],MprB auto-phosphorylation,MprB; 1 mM,no effect
same,phosphohistidine signal of MprB,MprB; 10 mM,only incomplete reduction
CC(=O)Oc1c(Cl)cc2c(C(N)=O)c(NC(=O)Nc3ccc(C(C)C)cc3)sc2c1Cl [D51275],Activity,ESX-1,41%
NC(=O)c1c(NC(=O)Nc2cccc(C(F)(F)F)c2)sc2cc(O)ccc12 [D39321],Activity,ESX-1,45%
NC(=O)Nc1sc2cc(O)c(Br)cc2c1C(N)=O [D70865],Activity,ESX-1,77%
CC(=O)Oc1c(Cl)cc2c(C(N)=O)c(NC(=O)Nc3cccc(CN(C)C)c3)sc2c1Cl [D58845],Activity,ESX-1,87%
[Cu] [copper],EsxA secretion,EsxA; elevated concentrations of copper,no effect
CC(=O)Oc1cc2sc(NC(=O)C3CC3)c(C(N)=O)c2cc1Br [D70866],Activity,ESX-1,80%
NC(=O)c1c(NC(=O)Nc2ccc(F)c(Cl)c2)sc2c(Cl)c(O)c(Cl)cc12 [D49399],Activity,ESX-1,33%
"CC[C@@H](CO)NCCN[C@@H](CC)CO [ethambutol, reference compound]",GroEL in the culture filtrate (cell lysis),GroEL; 5× MIC,cell lysis
same,EsxA secretion,EsxA; 0.5× MIC,no effect
NC(=O)c1c(NC(=O)Nc2cccc(Cl)c2)sc2cc(O)ccc12 [D39322],Activity,ESX-1,40%
COc1ccc([N+](=O)[O-])cc1COc1ccc(/C(C)=N/NC(=S)SC)cc1 [D22648],Activity,ESX-1,65%
CSc1ccc(NC(=O)Nc2sc3cc(O)ccc3c2C(N)=O)cc1 [D38979],Activity,ESX-1,60%
"CCc1cc(C(N)=S)ccn1 [ethionamide, reference compound]",GroEL in the culture filtrate (cell lysis),GroEL; 5× MIC,cell lysis
same,EsxA secretion,EsxA,no effect
"O=S(=O)([O-])[O-].[Zn+2] [zinc, ZnSO4]",Ag85 secretion,Ag85 complex proteins; media containing elevated levels of ZnSO4,remained unchanged
same,secretion of EsxA,EsxA; 500 μM zinc,sixfold increase
CSC(=S)N/N=C(\C)c1ccc(OCc2ccc(Br)cc2)cc1 [D22671],Activity,ESX-1,51%
COC(=O)c1cccc(NC(=O)Nc2sc3c(Cl)c(OC(C)=O)c(Cl)cc3c2C(N)=O)c1 [D58298],Activity,ESX-1,33%
CC(=O)Oc1cc2sc(NC(N)=O)c(C(N)=O)c2cc1Br [D71014],Activity,ESX-1,90%
CSC(=S)N/N=C(\C)c1ccc(OCc2cccc(Br)c2)cc1 [D22670],Activity,ESX-1,67%
"CC(=O)Nc1ccc(/C=N/NC(N)=S)cc1 [thiacetazone, reference compound]",GroEL in the culture filtrate (cell lysis),GroEL; 5× MIC,cell lysis
same,EsxA secretion,EsxA; 0.5× MIC,no effect
CSC(=S)N/N=C(\C)c1ccc(OCc2ccc([N+](=O)[O-])cc2)cc1 [D22647],Activity,ESX-1,30%
CSC(=S)N/N=C(\C)c1ccc(OCc2cccc([N+](=O)[O-])c2)cc1 [D22663],Activity,ESX-1,47%
C/C(=N\NC(=S)Nc1cccc(Cl)c1Cl)c1ccc(OCc2ccccc2)cc1 [D23579],Activity,ESX-1,75%
CSC(=S)N/N=C(\C)c1ccc(OCc2cccc(Cl)c2)cc1 [D22646],Activity,ESX-1,76%
"NC(=O)c1c(NC(=O)C2CC2)sc2cc(O)c(Br)cc12 [BTP15, 5 -Bromo-2-(cyclopropanecarbonyl-amino)-6-hydroxy-benzo[b]thiophene-3-carboxylic acid amide]",MIC99,[1],> 100 µM
same,GFP fluorescence of Mtb in infected fibroblasts,[2],comparable to the untreated control
same,significantly downregulated genes (number),"Mtb transcriptome; RNA-seq, 5 μM",18 genes
same,differentially regulated genes (number),"Mtb transcriptome; RNA-seq, 5 μM, 8 hours",35 genes
same,differential regulation (upregulation) of espA,Mtb transcriptome; qRT-PCR,> 2 fold
same,downregulation of DosR/MprAB associated genes,Mtb transcriptome; qRT-PCR,> 1.5 fold
same,mprA expression,"Mtb transcriptome; qRT-PCR, after 24 and 48 hours of drug treatment",significantly down-regulated
same,GroEL in the culture filtrate (cell lysis),GroEL; BBH7 and BTP15 treatment,not observed
same,IC50,MRC-5 lung fibroblasts,1200 nM
same,growth inhibition of Mtb,Mtb-Erdman,no growth inhibition
same,mycobacterial ATP levels,ATP-levels of Mtb,no impact
same,rate of bacteria in acidic compartments (Lysotracker Red co-localization),[3],significantly higher rate
same,MprB auto-phosphorylation,MprB,dose-dependent inhibition
same,Ag85 secretion,Ag85 complex proteins; 20 μM,reduced Ag85 secretion
same,Ag85 secretion,Ag85 complex proteins; concentrations ≦10 μM,only slightly affected at best
same,EsxA secretion,EsxA,dose-dependent secretion inhibition
same,EsxA secretion,EsxA; 20 μM,blocked EsxA secretion fully
same,Activity,ESX-1,92%
same,intracellular bacterial load,[4],greatly reduced the intracellular bacterial load
same,protection of THP-1 cells from Mtb-induced cell death,THP-1 macrophages,protected THP-1 cells from Mtb-induced cell death
same,EtBr accumulation and fluorescence,[5],not observed
CNC(=O)Nc1sc2c(C(C)C)cc(N)cc2c1C(N)=O [D63134],Activity,ESX-1,26%
CC(C)c1ccc(NC(=O)Nc2sc3cc(O)ccc3c2C(N)=O)cc1 [D39317],Activity,ESX-1,33%
C/C(=N\NC(=S)Nc1ccc(F)c(Cl)c1)c1ccc(OCc2ccccc2)cc1 [D23251],Activity,ESX-1,34%
COc1ccc(CNCC(O)COc2ccc3c(C(N)=O)c(NC(=O)C4CC4)sc3c2)cc1 (stereo not drawn) [D45756],Activity,ESX-1,32%
"NNC(=O)c1ccncc1 [Isoniazid, reference compound]",GroEL in the culture filtrate (cell lysis),GroEL; 5× MIC,cell lysis
same,EsxA secretion,EsxA; 0.5× MIC,no effect
CNC(=O)Nc1sc2c(Cl)c(O)c(Cl)cc2c1C(N)=O [D60166],Activity,ESX-1,55%
CSC(=S)N/N=C(\C)c1ccc(OCc2cccc(F)c2)cc1 [D22672],Activity,ESX-1,94%
